Measured values reported in US7880007B2, “Bicyclic substituted phenyl piperidine modulators of muscarinic receptors” (Vertex Pharmaceuticals Incorporated, priority 2004, dated 2011).

Tests used:
Format in all cases: cell-based
[1] = target: T1, M3 muscarinic receptor (Homo sapiens, UniProt P20309); test: Functional mobilization of intracellular calcium (FLIPR), M3-CHO cells; conditions: for M3 Activity: M3-CHO cells, calcium mobilization (FLIPR)
T1 construct: expressed in transfected cells; host or cells: CHO (M3-CHO)
Description: Functional Mobilization of Intracellular Calcium to Determine Muscarinic Receptor Activity:
CHO cells expressing muscarinic receptors (M1 to M5) are grown as monolayers in tissue culture flasks at 37° C. in a humidified atmosphere containing 5% CO2 and passaged every 3-5 days. The growth media is Dulbecco's modified eagles medium (DMEM, Gibco Cat #12430-054), containing 25 mM Hepes and supplemented with Fetal Bovine Serum (Hyclone, cat #SH30071.03), 0.1 mM of MEM non-essential amino acids (GIBCO, Cat #11140-050), 1 mM MEM Sodium Pyruvate (GIBCO Cat #11360-070) and 100 units/ml of Penicillin G and 100 μg/ml of Streptomycin (GIBCO Cat #15140-122). The recombinant muscarinic receptor cell lines are grown under antibiotic pressure with media containing 25 μg/ml zeocin and 500 μg/ml G418 (M1-CHO), 4 μg/ml puromycin, 50 μg/ml zeocin and 2.5 μg/ml blasticidin (M2 and M4-CHO) or 50 μg/ml zeocin and 4 μg/ml puromycin (M3 and M5-CHO).
Cells are harvested at 80-90% confluence using Versene (GIBCO Cat #15040-066), collected by centrifugation and seeded 18-24 hrs prior to running the calcium assay at a density of 5,000-10,000 cells/well in […], clear-bottomed 384-well plates (BD Biocoat, poly-D-lysine, Cat #356663). The day of the experiment, the cells are washed with a plate washer (Bioteck Instruments, ELX 405) using bath 1 buffer (140-mM NaCl, 4.5-mM KCl, 2-mM CaCl2, 1-mM MgCl2, 10-mM Hepes-Na, 10-mM Glucose, pH 7.4, with NaOH) containing 1 mM Probenecid. Next, the calcium dye Fluo-3 (25 μl/well of Fluo-3 AM at 4 μM, Molecular Probes F-1241, in Bath 1 buffer containing 1 mM Probenecid) is added to the 25 μl of Bath 1 remaining in each well after the plate wash and the dye is loaded at 37° C. in the tissue culture incubator for 60-90 min. The fluorescent dye is removed using the plate washer with Bath 1 containing 1 mM Probenecid, leaving 25 μl/well of this solution after the wash. Alternatively, cells can be loaded with the calcium indicator from Molecular Devices (Calcium 3 Assay Reagents, Cat #R7181) adding 5 μl of a 5× solution dye in Bath 1 containing 1 mM Probenecid (10 ml per dye flask cat #R7182 to generate a solution 20×) to 20 μl of the same buffer. After loading for 60 min, the experiment can be run without having to remove the dye.
Compounds are prepared at a 2× fold concentration in a 96-well plate (round bottom, Costar Corning cat #3656), by reconstituting the pre-spotted compounds in bath 1 containing 1 mM probenecid. The final concentration DMSO is 0.5%, and the amount of DMSO is normalized across the assay plate. To determine an agonist action of the compounds on muscarinic receptors, the reconstituted compounds are added (25 μl compound/well) to the cell assay plate (containing 25 μl/well) using the multi-channel robotic system of the FLIPR 3 Instrument (Molecular Devices, Sunnyvale, Calif.). To determine a functional inhibitory action of the compounds on muscarinic receptors, the reconstituted compounds are added (25 μl compound/well) to the assay plate and pre-incubated for 15 min prior to adding 25 μl of Carbachol at 3× the EC80 for each muscarinic subtype. Alternatively, the compounds can be co-applied simultaneously with the agonist. In both assay modes, the fluorescence is recorded for 60 sec (excitation wavelength is […] and emission wavelength 540 nm) using the FLIPR 3 instrument.
The potency, efficacy and selectivity of the muscarinic compounds were evaluated by screening the compound activity across the whole family (M1 to M5 cells). Compounds were also screened for activity on other proteins such as other GPCRs and ion channels to determine selectivity on M4 receptors.
Examples of activities and efficacies of the muscarinic compounds of formulae (I, Ia, Ib, and II) on modulating M1, M2, M3 and M4 receptors are shown below in Table 3. […]

[2] = target: T2, M4 muscarinic receptor (Homo sapiens, UniProt P08173); test: Functional mobilization of intracellular calcium (FLIPR), M4-CHO cells; conditions: for M4 Activity: M4-CHO cells, calcium mobilization (FLIPR)
T2 construct: expressed in transfected cells; host or cells: CHO (M4-CHO)
T2 sequence (P08173 1-479): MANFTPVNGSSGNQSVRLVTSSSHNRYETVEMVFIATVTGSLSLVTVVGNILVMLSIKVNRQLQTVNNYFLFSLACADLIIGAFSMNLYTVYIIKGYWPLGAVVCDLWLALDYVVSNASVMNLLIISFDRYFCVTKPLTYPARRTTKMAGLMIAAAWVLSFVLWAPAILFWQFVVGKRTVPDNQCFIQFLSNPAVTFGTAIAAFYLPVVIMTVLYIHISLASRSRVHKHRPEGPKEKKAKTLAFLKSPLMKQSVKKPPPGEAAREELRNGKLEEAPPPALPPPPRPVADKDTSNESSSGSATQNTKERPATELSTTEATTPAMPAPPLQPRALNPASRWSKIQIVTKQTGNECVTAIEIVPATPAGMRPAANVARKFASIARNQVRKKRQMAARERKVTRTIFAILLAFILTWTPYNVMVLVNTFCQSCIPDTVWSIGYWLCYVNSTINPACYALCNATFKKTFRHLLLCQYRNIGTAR
Procedure, shortened: (§1)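 FLIPR fluorescence (ex 488, em 540 nm) recorded 60 sec after compound addition to dye-loaded CHO cells. Agonist mode: compound alone. Antagonist mode: 15 min compound pre-incubation, then carbachol at EC80, or co-application. Efficacy expressed as % of maximal carbachol response.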

[3] = target: T3, M1 muscarinic receptor (Homo sapiens, UniProt P11229); test: Functional mobilization of intracellular calcium (FLIPR), M1-CHO cells; conditions: for M1 Activity: M1-CHO cells, calcium mobilization (FLIPR)
T3 construct: expressed in transfected cells; host or cells: CHO (M1-CHO)
T3 sequence (P11229 1-460): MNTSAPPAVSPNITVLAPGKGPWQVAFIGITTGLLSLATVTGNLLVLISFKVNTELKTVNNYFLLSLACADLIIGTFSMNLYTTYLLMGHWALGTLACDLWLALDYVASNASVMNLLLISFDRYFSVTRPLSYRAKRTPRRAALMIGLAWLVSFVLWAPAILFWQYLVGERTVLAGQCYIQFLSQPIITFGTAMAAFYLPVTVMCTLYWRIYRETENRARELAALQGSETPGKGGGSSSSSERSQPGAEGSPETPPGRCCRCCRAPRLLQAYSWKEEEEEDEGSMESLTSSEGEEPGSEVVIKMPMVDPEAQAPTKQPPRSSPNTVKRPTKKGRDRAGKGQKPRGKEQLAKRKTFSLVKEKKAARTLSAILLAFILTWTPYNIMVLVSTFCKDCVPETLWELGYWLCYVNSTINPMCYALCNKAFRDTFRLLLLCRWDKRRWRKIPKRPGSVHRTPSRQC
Procedure, shortened: as §1

[4] = target: T4, M2 muscarinic receptor (Homo sapiens, UniProt P08172); test: Functional mobilization of intracellular calcium (FLIPR), M2-CHO cells; conditions: for M2 Activity: M2-CHO cells, calcium mobilization (FLIPR)
T4 construct: expressed in transfected cells; host or cells: CHO (M2-CHO)
T4 sequence (P08172 1-466): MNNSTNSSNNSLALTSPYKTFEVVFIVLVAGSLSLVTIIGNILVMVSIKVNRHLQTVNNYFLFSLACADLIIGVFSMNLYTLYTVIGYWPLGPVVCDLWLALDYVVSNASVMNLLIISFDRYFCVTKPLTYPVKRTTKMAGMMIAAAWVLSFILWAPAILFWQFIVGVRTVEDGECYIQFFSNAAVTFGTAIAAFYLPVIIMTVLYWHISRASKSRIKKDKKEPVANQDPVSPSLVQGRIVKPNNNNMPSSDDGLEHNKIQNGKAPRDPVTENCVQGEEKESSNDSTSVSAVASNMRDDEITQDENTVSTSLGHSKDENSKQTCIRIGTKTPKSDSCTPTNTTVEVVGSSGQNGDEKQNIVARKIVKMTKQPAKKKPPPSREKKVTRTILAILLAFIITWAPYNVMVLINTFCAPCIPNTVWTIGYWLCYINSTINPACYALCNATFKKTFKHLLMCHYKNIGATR
Procedure, shortened: as §1

[5] = 100% efficacy = maximum response obtained with the Carbachol control
[6] = 100% efficacy is the maximum response obtained with the Carbachol control

T1 sequence (P20309 whole entry): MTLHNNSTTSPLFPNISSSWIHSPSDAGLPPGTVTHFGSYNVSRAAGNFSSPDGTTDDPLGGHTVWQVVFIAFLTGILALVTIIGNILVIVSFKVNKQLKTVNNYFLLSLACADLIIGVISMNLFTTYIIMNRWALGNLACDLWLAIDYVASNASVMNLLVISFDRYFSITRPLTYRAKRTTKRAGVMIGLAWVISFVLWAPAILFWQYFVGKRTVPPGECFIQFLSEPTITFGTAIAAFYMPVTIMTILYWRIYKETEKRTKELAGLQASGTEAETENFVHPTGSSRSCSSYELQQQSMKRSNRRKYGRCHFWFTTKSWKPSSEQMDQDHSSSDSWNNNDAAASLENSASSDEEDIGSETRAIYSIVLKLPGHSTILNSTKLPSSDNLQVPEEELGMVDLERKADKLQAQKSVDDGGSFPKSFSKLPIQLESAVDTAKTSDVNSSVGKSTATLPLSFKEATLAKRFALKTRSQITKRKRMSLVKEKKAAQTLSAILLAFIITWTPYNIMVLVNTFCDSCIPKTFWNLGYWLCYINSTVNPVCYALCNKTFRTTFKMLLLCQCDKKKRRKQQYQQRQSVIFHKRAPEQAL

| SMILES | Emax [1, 5] [%] | Emax [2, 5] [%] | Emax [3, 5] [%] | Emax [4, 5] [%] | Emax [1, 6] [%] | Emax [2, 6] [%] | Emax [3, 6] [%] | Emax [4, 6] [%] | M3 Activity [1] | M4 Activity [2] | M1 Activity [3] | M2 Activity [4] |
| --- | --- | --- | --- | --- | --- | --- | --- | --- | --- | --- | --- | --- |
| CC(=O)COc1ccccc1C1CCN(C2CC3CC[C@H]2C3)CC1 (stereo in doubt) [Compound 53, 1-(2-(1-((1S,2R,4R)-bicyclo[2.2.1]heptan-2-yl)piperidin-4-yl)phenoxy)propan-2-one] | < 25 | 25 to 100 | 25 to 100 | 25 to 100 | – | – | – | – | – | – | – | – |
| COc1ccccc1C1CCN(CC2CCCOC2)CC1 (centres unmarked) [Compound 2] | < 25 | 25 to 100 | 25 to 100 | < 25 | – | – | – | – | + (activity was measured to be greater than 5.0 μM) | ++ (activity was measured to be from 1.0 μM to 5.0 μM) | + (activity was measured to be greater than 5.0 μM) | + (activity was measured to be greater than 5.0 μM) |
| COc1ccc(C(=O)C2CC2)cc1C1CCN([C@H]2C[C@H]3CC[C@H]2C3)CC1 [Compound 3] | < 25 | < 25 | < 25 | < 25 | – | – | – | – | + (activity was measured to be greater than 5.0 μM) | + (activity was measured to be greater than 5.0 μM) | + (activity was measured to be greater than 5.0 μM) | + (activity was measured to be greater than 5.0 μM) |
| COc1cc(F)ccc1C1CCN([C@H]2C[C@H]3CC[C@H]2C3)CC1 [Compound 4] | < 25 | 25 to 100 | 25 to 100 | < 25 | – | – | – | – | + (activity was measured to be greater than 5.0 μM) | +++ (activity was measured to be less than 1.0 μM) | + (activity was measured to be greater than 5.0 μM) | + (activity was measured to be greater than 5.0 μM) |

Now from value to compound, other results behind:

| Emax [1, 5] [%] | Emax [2, 5] [%] | Emax [3, 5] [%] | Emax [4, 5] [%] | Emax [1, 6] [%] | Emax [2, 6] [%] | Emax [3, 6] [%] | Emax [4, 6] [%] | SMILES | M3 Activity [1] | M4 Activity [2] | M1 Activity [3] | M2 Activity [4] |
| --- | --- | --- | --- | --- | --- | --- | --- | --- | --- | --- | --- | --- |
| < 25 | 25 to 100 | 25 to 100 | 25 to 100 | – | – | – | – | COc1ccc(C#Cc2ccccc2)cc1C1CCN(C2CC3CC[C@H]2C3)CC1 (stereo in doubt) [Compound 64, 1-((1S,2R,4R)-bicyclo[2.2.1]heptan-2-yl)-4-(2-methoxy-5-(phenyl-ethynyl)phenyl)piperidine] | + (activity was measured to be greater than 5.0 μM) | ++ (activity was measured to be from 1.0 μM to 5.0 μM) | + (activity was measured to be greater than 5.0 μM) | + (activity was measured to be greater than 5.0 μM) |
| < 25 | < 25 | 25 to 100 | < 25 | – | – | – | – | COc1ccc(C(=O)C(C)C)cc1C1CCN(C2CC3CC[C@H]2C3)CC1 (stereo in doubt) [Compound 222, 1-(3-(1-((1S,2R,4R)-bicyclo[2.2.1]heptan-2-yl)piperidin-4-yl)-4-methoxyphenyl)-2-methylpropan-1-one] | – | – | – | – |
| < 25 | 25 to 100 | 25 to 100 | < 25 | – | – | – | – | Oc1ccccc1C1CCN(C2CC3CC[C@H]2C3)CC1 (stereo in doubt) [Compound 229, 2-(1-((1S,2R,4R)-bicyclo[2.2.1]heptan-2-yl)piperidin-4-yl)phenol] | + (activity was measured to be greater than 5.0 μM) | ++ (activity was measured to be from 1.0 μM to 5.0 μM) | ++ (activity was measured to be from 1.0 μM to 5.0 μM) | + (activity was measured to be greater than 5.0 μM) |
| – | – | – | – | < 25 | 25 to 100 | 25 to 100 | < 25 | COc1ccccc1C1CCN(C2CC3CC[C@H]2C3)CC1 (stereo in doubt) [Compound 397, 1-((1S,2R,4R)-bicyclo[2.2.1]heptan-2-yl)-4-(2-methoxyphenyl)piperidine] | + (activity was measured to be greater than 5.0 μM) | +++ (activity was measured to be less than 1.0 μM) | ++ (activity was measured to be from 1.0 μM to 5.0 μM) | + (activity was measured to be greater than 5.0 μM) |
